Assay results published in PubChem BioAssay AID602464 (Sanford-Burnham Center for Chemical Genomics, 2012).

Tested on: Gli-responsive luciferase reporter cells, SUFU pathway antagonism
Assay: Gli-SUFU pathway antagonists, dose response, cell-based, luciferase luminescence, uHTS hits (AID 602464)

COc1ccccc1C(=O)NC(=S)/C=C1/N(C)c2ccccc2C1(C)C
IC50: 8.55 µM

COC(=O)c1cc(S(=O)(=O)N2CCC(c3cc(OC)ccc3OC)C2)c[nH]1 (configuration not stated)
IC50: 9.96 µM

Cc1nc2ccccc2c2oc(C(=O)N3CCN(C4CCCCC4)CC3)cc12
IC50: 18.7 µM

C/C(=N\NC(=O)C(=O)Nc1ccc(C)c(Cl)c1)c1ccncc1
IC50: 1.51 µM

Brc1ccc(-c2csc(N3CCCCCC3)n2)cc1
IC50: 1.02 µM

CC(=O)c1c(C)[nH]c(C(=O)OCC(=O)Nc2ccc(C)cc2[N+](=O)[O-])c1C
IC50: 0.535 µM

CC(C)CCOC(=O)C[N+](C)(C)CCOC1CC2CCC1(C)C2(C)C (configuration not stated)
IC50: 5.18 µM

CCCN1CCC(=O)N([C@H](CSc2ccc(OC)cc2)Cc2ccccc2)CC1
IC50: 9.77 µM

Cc1ccc(C)c(-c2csc(NC(=O)C3=COCCO3)n2)c1
IC50: 6.31 µM

c1ccc(C[n+]2cccc(-c3ccccc3)c2)cc1
IC50: 10.8 µM

O=C(NC1CCCC1)c1cc(COc2ccc3ncccc3c2)on1
IC50: 5.18 µM

CC(C)(C)[C@H]1COC(=O)[C@H](NC(=O)OCC2c3ccccc3-c3ccccc32)C/C=C\C[C@@H](CC(=O)N(CCO)Cc2ccccc2)C(=O)N1
IC50: 11.8 µM
